According to PubChem BioAssay AID1963443 (Molecular Pharmacology Branch, DTP, NCI, 2024):
pIC50: −log10 of the molar value.

System: MDA-MB-231 complex spheroids, growth inhibition
Experiment: Anticancer human tumor MDA-MB-231 cell line growth inhibition [Asc];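 note: spheroids exposed to compounds for 7 days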
Details: for pIC50: curve of first compound; for viability, T/C: stronger effect = lower value
Method in brief: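 Complex spheroids combining tumor cells with HUVEC endothelial cells and human MSCs, at 37 degrees C, 5% CO2; agents tested alone or combined, half-log dilutions from at or near clinical Cmax, or 10 microM if Cmax unknown.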

With `CCN1CCN(Cc2ccc(Nc3ncc(F)c(-c4cc(F)c5nc(C)n(C(C)C)c5c4)n3)nc2)CC1` + CNC(C)C(=O)NC1CN(S(=O)(=O)c2cccc(S(=O)(=O)N3CCC4CCC(C(=O)NC(c5ccccc5)c5ccccc5)N4C(=O)C(NC(=O)C(C)NC)C3)c2)CCC2CCC(C(=O)NC(c3ccccc3)c3ccccc3)N2C1=O as the compound, how does the pIC50 (second compound 0.01 µM) read?
The pIC50 was over 8.50.

What about the pIC50 (second compound 0.0316 µM) of the same compound?
The pIC50 was over 8.50.

What about the pIC50 (second compound 0.1 µM) of the same compound?
The pIC50 was over 8.50.

And the pIC50 (second compound 0.316 µM)?
The pIC50 was over 8.50.

And the pIC50 (second compound 1 µM)?
Its pIC50 is over 8.50.

And the viability, T/C (second compound 0.01 µM, first compound 0.00316 µM)?
The viability, T/C was 2.49%.

What about the viability, T/C (second compound 0.01 µM, first compound 0.01 µM) of the same compound?
The viability, T/C was 2.43%.

What about the viability, T/C (second compound 0.01 µM, first compound 0.0316 µM) of the same compound?
Its viability, T/C is 2.51%.

And the viability, T/C (second compound 0.01 µM, first compound 0.1 µM)?
The viability, T/C was 1.88%.

What about the viability, T/C (second compound 0.01 µM, first compound 0.316 µM) of the same compound?
Its viability, T/C is 2.98%.

What about the viability, T/C (second compound 0.01 µM, first compound 1 µM) of the same compound?
The viability, T/C was 2.28%.

And the viability, T/C (second compound 0.0316 µM, first compound 0.00316 µM)?
Its viability, T/C is 1.93%.

And the viability, T/C (second compound 0.0316 µM, first compound 0.01 µM)?
The viability, T/C was 1.53%.

What about the viability, T/C (second compound 0.0316 µM, first compound 0.0316 µM) of the same compound?
Its viability, T/C is 1.38%.

And the viability, T/C (second compound 0.0316 µM, first compound 0.1 µM)?
Its viability, T/C is 1.94%.

And the viability, T/C (second compound 0.0316 µM, first compound 0.316 µM)?
Its viability, T/C is 1.87%.

And the viability, T/C (second compound 0.0316 µM, first compound 1 µM)?
Its viability, T/C is 1.71%.

And the viability, T/C (second compound 0.1 µM, first compound 0.00316 µM)?
Its viability, T/C is 1.19%.

What about the viability, T/C (second compound 0.1 µM, first compound 0.01 µM) of the same compound?
Its viability, T/C is 1.19%.

What about the viability, T/C (second compound 0.1 µM, first compound 0.0316 µM) of the same compound?
Its viability, T/C is 1.61%.

What about the viability, T/C (second compound 0.1 µM, first compound 0.1 µM) of the same compound?
Its viability, T/C is 1.32%.

What about the viability, T/C (second compound 0.1 µM, first compound 0.316 µM) of the same compound?
Its viability, T/C is 1.44%.

And the viability, T/C (second compound 0.1 µM, first compound 1 µM)?
Its viability, T/C is 1.16%.

And the viability, T/C (second compound 0.316 µM, first compound 0.00316 µM)?
The viability, T/C was 0.98%.

What about the viability, T/C (second compound 0.316 µM, first compound 0.01 µM) of the same compound?
Its viability, T/C is 1.26%.

What about the viability, T/C (second compound 0.316 µM, first compound 0.0316 µM) of the same compound?
Its viability, T/C is 1.17%.

What about the viability, T/C (second compound 0.316 µM, first compound 0.1 µM) of the same compound?
Its viability, T/C is 1.28%.

What about the viability, T/C (second compound 0.316 µM, first compound 0.316 µM) of the same compound?
Its viability, T/C is 1.38%.

What about the viability, T/C (second compound 0.316 µM, first compound 1 µM) of the same compound?
Its viability, T/C is 1.15%.

What about the viability, T/C (second compound 1 µM, first compound 0.00316 µM) of the same compound?
Its viability, T/C is 1.1%.

What about the viability, T/C (second compound 1 µM, first compound 0.01 µM) of the same compound?
Its viability, T/C is 0.95%.

What about the viability, T/C (second compound 1 µM, first compound 0.0316 µM) of the same compound?
Its viability, T/C is 1.26%.

What about the viability, T/C (second compound 1 µM, first compound 0.1 µM) of the same compound?
Its viability, T/C is 1.51%.

And the viability, T/C (second compound 1 µM, first compound 0.316 µM)?
Its viability, T/C is 1.22%.

What about the viability, T/C (second compound 1 µM, first compound 1 µM) of the same compound?
The viability, T/C was 1.35%.

How did the pIC50 (second compound 0.03 µM) turn out when `NC(=O)C(=Cn1cnc(-c2cc(C(F)(F)F)cc(C(F)(F)F)c2)n1)c1cncnc1` + CCN1C(C(=O)NC23CCC(C(=O)O)(CC2)CC3)C(c2cccc(Cl)c2F)C2(C(=O)Nc3cc(Cl)ccc32)C12CCCCC2 was run?
The pIC50 was 7.11.

And the pIC50 (second compound 0.0949 µM)?
Its pIC50 is 7.15.

What about the pIC50 (second compound 0.3 µM) of the same compound?
The pIC50 was 7.07.

What about the pIC50 (second compound 0.949 µM) of the same compound?
The pIC50 was 7.07.

What about the pIC50 (second compound 3 µM) of the same compound?
Its pIC50 is 7.17.

And the viability, T/C (second compound 0.03 µM, first compound 0.000949 µM)?
Its viability, T/C is 103%.

And the viability, T/C (second compound 0.03 µM, first compound 0.003 µM)?
The viability, T/C was 92.8%.

And the viability, T/C (second compound 0.03 µM, first compound 0.00949 µM)?
Its viability, T/C is 82.4%.

What about the viability, T/C (second compound 0.03 µM, first compound 0.03 µM) of the same compound?
The viability, T/C was 60%.

What about the viability, T/C (second compound 0.03 µM, first compound 0.0949 µM) of the same compound?
Its viability, T/C is 52.5%.

And the viability, T/C (second compound 0.03 µM, first compound 0.3 µM)?
The viability, T/C was 23.6%.

What about the viability, T/C (second compound 0.0949 µM, first compound 0.000949 µM) of the same compound?
The viability, T/C was 111%.

What about the viability, T/C (second compound 0.0949 µM, first compound 0.003 µM) of the same compound?
The viability, T/C was 103%.

What about the viability, T/C (second compound 0.0949 µM, first compound 0.00949 µM) of the same compound?
Its viability, T/C is 90.4%.

And the viability, T/C (second compound 0.0949 µM, first compound 0.03 µM)?
Its viability, T/C is 62.6%.

And the viability, T/C (second compound 0.0949 µM, first compound 0.0949 µM)?
The viability, T/C was 47.3%.

What about the viability, T/C (second compound 0.0949 µM, first compound 0.3 µM) of the same compound?
The viability, T/C was 21.7%.

What about the viability, T/C (second compound 0.3 µM, first compound 0.000949 µM) of the same compound?
The viability, T/C was 112%.

And the viability, T/C (second compound 0.3 µM, first compound 0.003 µM)?
Its viability, T/C is 102%.

And the viability, T/C (second compound 0.3 µM, first compound 0.00949 µM)?
The viability, T/C was 87%.

What about the viability, T/C (second compound 0.3 µM, first compound 0.03 µM) of the same compound?
Its viability, T/C is 63.1%.

And the viability, T/C (second compound 0.3 µM, first compound 0.0949 µM)?
The viability, T/C was 52.5%.

What about the viability, T/C (second compound 0.3 µM, first compound 0.3 µM) of the same compound?
The viability, T/C was 25%.

What about the viability, T/C (second compound 0.949 µM, first compound 0.000949 µM) of the same compound?
Its viability, T/C is 117%.

What about the viability, T/C (second compound 0.949 µM, first compound 0.003 µM) of the same compound?
Its viability, T/C is 107%.

And the viability, T/C (second compound 0.949 µM, first compound 0.00949 µM)?
The viability, T/C was 93.4%.

And the viability, T/C (second compound 0.949 µM, first compound 0.03 µM)?
The viability, T/C was 66.9%.

What about the viability, T/C (second compound 0.949 µM, first compound 0.0949 µM) of the same compound?
The viability, T/C was 50.4%.

And the viability, T/C (second compound 0.949 µM, first compound 0.3 µM)?
Its viability, T/C is 26.8%.

And the viability, T/C (second compound 3 µM, first compound 0.000949 µM)?
The viability, T/C was 102%.

What about the viability, T/C (second compound 3 µM, first compound 0.003 µM) of the same compound?
The viability, T/C was 94.2%.

What about the viability, T/C (second compound 3 µM, first compound 0.00949 µM) of the same compound?
Its viability, T/C is 79.4%.

And the viability, T/C (second compound 3 µM, first compound 0.03 µM)?
Its viability, T/C is 59.9%.

What about the viability, T/C (second compound 3 µM, first compound 0.0949 µM) of the same compound?
The viability, T/C was 46.9%.

What about the viability, T/C (second compound 3 µM, first compound 0.3 µM) of the same compound?
Its viability, T/C is 31.6%.
